1 sequence from patent US20090305994A1, “Compounds Modulating Vegf Receptor and Uses Thereof” (priority 2005, published 2009) can be followed below.

Holding throughout (assay type): cell-based, bovine
In test [1] the target is T1, KDR (Bos taurus, UniProt A0AAA9SPC9).
T1 construct: we immunoprecipitated total KDR and Flt-1 from BAEC whole extracts; endogenous in cells; host or cells: BAEC (bovine aorta endothelial cells, SV40-immortalized)
Briefly: KDR activation (immunoprecipitation, phospho-tyrosine western blot) in BAEC. Conditions: 15 minutes of exposure. The method, then: (§1) VEGF receptors binding and activation. a) VEGF competitive binding on BAEC. 1 μg of membrane protein was plated with QK and [^125I]-VEGF (500000 cpm, 10^−10 M). b) KDR activation. After stimulation total KDR was immunoprecipitated from a whole-cell protein extracts and phospho-tyrosine was visualized by a specific antibody, anti-rabbit HRP-conjugated secondary antibody and standard chemiluminescence. c) Flt-1 activation. After stimulation total Flt-1 was immunoprecipitated from a whole-cell protein extracts and phospho-tyrosine was visualized by specific antibody, anti-rabbit HRP-conjugated secondary antibody and standard chemiluminescence.
(§2) Western blot. Cells were plated on six-well dishes and serum starved overnight. On the next day, cells were treated with different amount of peptide in absence or in presence of VEGF165 for 15 minutes at 37° C. and then dissolved in RIPA-SDS buffer (50 mM Tris-HCl (pH 7.5), 150 mM NaCl, 1% NP-40, 0.25% deoxycholate, 9.4 mg/50 ml sodium orthovanadate, […]). In some experiments, total KDR and Flt-1 were immunoprecipitated from an equal amount of whole-cell protein extracts using protein A/G agarose beads conjugated with antibodies raised against total KDR or Flt-1 (R&D). Proteins from whole-cell extracts or immunocomplexes were resolved by PAGE and transferred to nitrocellulose. […]
For orientation: Immunoblotting shows a protein as a band on a membrane.

The target in test [2] is T2, Flt-1 (Bos taurus, UniProt F1MDD9).
T2 construct: we immunoprecipitated total KDR and Flt-1 from BAEC whole extracts; endogenous in cells; host or cells: BAEC (bovine aorta endothelial cells, SV40-immortalized)
T2 sequence (F1MDD9 1-1251): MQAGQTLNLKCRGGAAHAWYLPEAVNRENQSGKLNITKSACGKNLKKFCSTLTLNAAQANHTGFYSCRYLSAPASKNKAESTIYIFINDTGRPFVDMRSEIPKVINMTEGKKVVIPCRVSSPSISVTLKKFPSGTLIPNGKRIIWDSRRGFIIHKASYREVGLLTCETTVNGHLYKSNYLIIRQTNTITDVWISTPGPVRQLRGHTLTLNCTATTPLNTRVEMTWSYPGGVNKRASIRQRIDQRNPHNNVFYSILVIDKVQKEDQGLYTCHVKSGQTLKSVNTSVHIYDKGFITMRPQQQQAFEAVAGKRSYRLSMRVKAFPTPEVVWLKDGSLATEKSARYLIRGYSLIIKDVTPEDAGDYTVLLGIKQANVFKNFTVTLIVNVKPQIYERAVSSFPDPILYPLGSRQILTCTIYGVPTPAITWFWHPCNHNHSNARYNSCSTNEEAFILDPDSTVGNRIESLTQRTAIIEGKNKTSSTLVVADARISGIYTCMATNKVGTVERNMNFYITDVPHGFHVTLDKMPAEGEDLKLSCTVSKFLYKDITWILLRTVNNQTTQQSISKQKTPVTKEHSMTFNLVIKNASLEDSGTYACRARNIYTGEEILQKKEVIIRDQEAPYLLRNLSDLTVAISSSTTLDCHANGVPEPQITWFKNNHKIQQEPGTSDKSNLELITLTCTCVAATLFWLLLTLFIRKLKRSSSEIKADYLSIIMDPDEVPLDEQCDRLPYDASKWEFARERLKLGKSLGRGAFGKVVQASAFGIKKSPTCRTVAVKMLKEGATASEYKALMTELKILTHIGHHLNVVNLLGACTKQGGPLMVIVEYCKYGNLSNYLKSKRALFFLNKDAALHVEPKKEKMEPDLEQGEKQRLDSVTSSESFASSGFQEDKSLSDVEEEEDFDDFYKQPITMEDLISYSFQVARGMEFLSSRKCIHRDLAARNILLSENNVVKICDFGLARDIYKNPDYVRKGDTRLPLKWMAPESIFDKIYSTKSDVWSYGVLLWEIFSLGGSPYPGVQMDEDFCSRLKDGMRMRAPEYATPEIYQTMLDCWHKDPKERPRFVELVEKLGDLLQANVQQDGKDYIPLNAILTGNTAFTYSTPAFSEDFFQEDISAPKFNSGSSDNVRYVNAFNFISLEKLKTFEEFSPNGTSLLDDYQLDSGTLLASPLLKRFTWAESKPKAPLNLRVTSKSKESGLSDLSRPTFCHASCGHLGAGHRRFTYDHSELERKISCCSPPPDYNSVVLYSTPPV
Briefly: Flt-1 activation (immunoprecipitation, phospho-tyrosine western blot) in BAEC. Particulars: 15 minutes of exposure. The method, then:
as §1, §2

For test [3], the system named is RB. Briefly: RB phosphorylation (western blot). Particulars: 12 and 18 hours; QK 10^-6 M, VEGF165 100 ng/ml, VEGF 15 10^-6 M. The method, then:
Effect of QK on cell proliferation. a) DNA synthesis. BAEC were incubated in DMEM with [^3H]-thymidine and QK in absence or in presence of VEGF165 (100 ng/ml). After 24 hours cells were fixed and lysed. Scintillation liquid was added and [^3H]-thymidine incorporation was evaluated. b) Cell proliferation. BAEC were stimulated with the indicated amount of QK in absence or in presence of VEGF165 (100 ng/ml). Cell number was determined at 24 hours after stimulation. c) RB phosphorylation. p-RB was evaluated at 12 and 18 hours after stimulation with QK (10^-6M), VEGF165 (100 ng/ml) and VEGF 15 (10^−6 M).
Cells proliferation assay. Cells were seeded at a density of 10000 per well in six well plates, serum starved overnight and then stimulated with QK (10-12 to 10^−6 M) in absence or in presence of VEGF165. Cell number was determined at 24 hours after stimulation. The p-RB, was evaluated by western blot 12 and 18 hours after stimulation with QK (10^−6 M), VEGF165 and VEGF 15 (10^−6 M).

T1 sequence (A0AAA9SPC9 20-1356): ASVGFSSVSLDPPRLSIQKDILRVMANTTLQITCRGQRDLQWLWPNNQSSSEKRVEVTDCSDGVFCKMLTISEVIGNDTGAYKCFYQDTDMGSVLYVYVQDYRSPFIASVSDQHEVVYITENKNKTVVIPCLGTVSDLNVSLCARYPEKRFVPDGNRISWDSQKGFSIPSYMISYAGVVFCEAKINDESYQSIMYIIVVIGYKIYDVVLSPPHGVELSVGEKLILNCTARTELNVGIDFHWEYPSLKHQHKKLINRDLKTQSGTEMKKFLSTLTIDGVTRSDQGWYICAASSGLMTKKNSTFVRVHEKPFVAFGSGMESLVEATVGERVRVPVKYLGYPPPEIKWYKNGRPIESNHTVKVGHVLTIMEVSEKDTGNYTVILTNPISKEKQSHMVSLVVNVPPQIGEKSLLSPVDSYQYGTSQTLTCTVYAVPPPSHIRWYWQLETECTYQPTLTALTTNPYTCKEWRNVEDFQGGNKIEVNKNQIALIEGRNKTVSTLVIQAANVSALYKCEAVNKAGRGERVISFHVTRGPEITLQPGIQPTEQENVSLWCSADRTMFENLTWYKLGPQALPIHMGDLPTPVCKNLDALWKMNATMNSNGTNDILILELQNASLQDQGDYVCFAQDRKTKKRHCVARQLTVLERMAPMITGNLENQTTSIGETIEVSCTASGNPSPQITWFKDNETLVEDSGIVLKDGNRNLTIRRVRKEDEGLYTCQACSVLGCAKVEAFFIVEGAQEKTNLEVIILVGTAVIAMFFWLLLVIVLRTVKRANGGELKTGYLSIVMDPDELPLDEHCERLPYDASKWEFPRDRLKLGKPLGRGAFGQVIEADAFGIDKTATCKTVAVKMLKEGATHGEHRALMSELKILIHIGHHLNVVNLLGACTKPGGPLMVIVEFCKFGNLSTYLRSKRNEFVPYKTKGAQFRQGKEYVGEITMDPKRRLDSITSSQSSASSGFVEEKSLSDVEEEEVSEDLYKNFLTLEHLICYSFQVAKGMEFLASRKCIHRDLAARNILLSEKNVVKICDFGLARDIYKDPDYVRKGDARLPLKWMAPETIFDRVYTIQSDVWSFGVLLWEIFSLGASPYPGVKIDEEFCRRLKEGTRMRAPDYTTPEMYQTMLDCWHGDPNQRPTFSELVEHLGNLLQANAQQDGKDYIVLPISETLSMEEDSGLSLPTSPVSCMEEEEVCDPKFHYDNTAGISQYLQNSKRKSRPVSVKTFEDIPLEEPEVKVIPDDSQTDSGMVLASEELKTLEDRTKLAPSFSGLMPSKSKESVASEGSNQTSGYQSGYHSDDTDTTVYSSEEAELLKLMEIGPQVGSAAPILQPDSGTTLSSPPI

Take KLTWQELYQLKYKGI [QK]: the phospho-KDR levels entry in test [1] is “reduced phospho-KDR below the levels in unstimulated cells”. In addition, the Flt-1 phosphorylation entry in test [2] is on record as “increased the levels of phosphorylation of Flt-1”. The “phosphorylation of the cyclin RB” value in test [3] is “enhanced phosphorylation of the cyclin RB”.
